Results reported in PubChem BioAssay (NCI).
“And” between values parts separate entries of the source, which are not always exact repeats. Equal entries are not always repeated.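 Following 48 hours of exposure in 96-well plates, responses at five concentrations were used to interpolate endpoints linearly. GI50 = concentration required for 50% inhibition of growth. The concentration for full growth arrest is given as TGI.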

Experiments:
Assay in all cases: NCI-60 cell line screen, 48 h
UO-31 renal = tested on: UO-31 renal
BT-549 breast = tested on: BT-549 breast
M14 melanoma = tested on: M14 melanoma
SK-MEL-2 melanoma = tested on: SK-MEL-2 melanoma
MDA-MB-435 = tested on: MDA-MB-435
SF-295 CNS = tested on: SF-295 CNS
UACC-257 melanoma = tested on: UACC-257 melanoma
NCI/ADR-RES ovarian = tested on: NCI/ADR-RES ovarian
T-47D breast = tested on: T-47D breast
K-562 leukemia = tested on: K-562 leukemia

Row | Structure (SMILES) | GI50 (UO-31 renal) | TGI (UO-31 renal) | GI50 (BT-549 breast) | TGI (BT-549 breast) | GI50 (M14 melanoma) [µM] | TGI (M14 melanoma) | GI50 (SK-MEL-2 melanoma) | TGI (SK-MEL-2 melanoma) | GI50 (MDA-MB-435) | TGI (MDA-MB-435) | GI50 (SF-295 CNS) | TGI (SF-295 CNS) | GI50 (UACC-257 melanoma) | TGI (UACC-257 melanoma) | GI50 (NCI/ADR-RES ovarian) | TGI (NCI/ADR-RES ovarian) | GI50 (T-47D breast) | TGI (T-47D breast) | GI50 (K-562 leukemia) | TGI (K-562 leukemia)
1 | CN1c2ccccc2C(C)(C)C12CC(c1ccc(Cl)c(S(=O)(=O)N3CCCC3)c1)=NO2 (configuration not stated) | > 100 µM | > 100 µM | > 100 µM | > 100 µM | > 100 | > 100 µM | > 100 µM | > 100 µM | > 100 µM | > 100 µM | > 100 µM | > 100 µM | > 100 µM | > 100 µM | > 100 µM | > 100 µM | > 100 µM | > 100 µM | – | –
2 | COc1cc2c3c(n(C)c(=O)c2cc1OC)-c1cc2c(cc1/C3=C\[C@@H](N)CCCCN)OCO2 | 8 µM | > 100 µM | 4.52 µM | 28.3 µM | 6.9 | > 100 µM | 13.2 µM | > 100 µM | 2.81 µM | > 100 µM | 4.3 µM | > 100 µM | 5.24 µM | > 52.8 µM | 29.7 µM | > 100 µM | 13 µM | > 100 µM | 2.43 µM | > 72.2 µM
3 | CN(C)CCCC(=O)Nc1ccc(Cn2nnc3c2C(=O)c2nnn(Cc4ccc(NC(=O)CCCN(C)C)cc4)c2C3=O)cc1 | > 100 µM | > 100 µM | 13.8 µM | 29.8 µM | 5.97 | 24.3 µM | 2.17 µM | 4.64 µM | 1.82 µM | 3.26 µM | 14.4 µM | 31.5 µM | 3.25 µM | 11.6 µM | > 100 µM | > 100 µM | – | – | 5.45 µM | 55.9 µM
4 | COc1cccc2c(Nc3ccc(C(=O)NCCN(C)C)cc3)cc(-c3ccccc3)nc12 | 13.9 µM | 32.3 µM | 20.3 µM | 44.8 µM | 16.3 | 30.5 µM | 17.9 µM | 36.8 µM | 22 µM | 39.1 µM | 22.9 µM | 41.4 µM | 15.7 µM | 29.9 µM | 18.3 µM | 42.9 µM | 19.7 µM | 50.2 µM | 10.8 µM | 31.5 µM
5 | C=CCNc1cccc2c1C(=O)c1ccccc1C2(O)CC=C (configuration not stated) | 27.7 µM | > 100 µM | 19.3 µM | 42.7 µM | 19 | 41 µM | 20.7 µM | 47.6 µM | 24.6 µM | 59 µM | 25.7 µM | 55 µM | 15 µM | 39 µM | 22.4 µM | 58.4 µM | 32.2 µM | > 100 µM | 31.1 µM | 95.2 µM
6 | COc1ccc(-c2[nH]ncc2-c2cc(OC)c(OC)c(OC)c2)cc1 | < 0.01 µM | 11.2 µM | 0.0143 µM | 4.45 µM | < 0.01 | 0.852 µM | < 0.01 µM | 0.517 µM | < 0.01 µM | < 0.01 µM | < 0.01 µM | < 0.01 µM | – | > 50.3 µM | < 0.01 µM | 1.93 µM | – | – | < 0.01 µM | > 34.4 µM
7 | CC(=O)OC1=C2C(CC3C4CC=C5CC(OC(C)=O)CCC5(C)C4CCC23C)C2C(=O)N(Cc3ccccc3)C(=O)C2C1 (configuration not stated) | 2.56 µM | 8.39 µM | 3.53 µM | 13.5 µM | 7.77 | 75.3 µM | – | – | 14.5 µM | > 100 µM | 10.8 µM | > 100 µM | 10.9 µM | > 100 µM | 5.53 µM | 28.2 µM | 3.12 µM | 20.1 µM | 4.33 µM | > 100 µM
8 | O=[N+]([O-])c1ccc2c(c1)S(=O)c1ccccc1-2 (configuration not stated) | – | – | – | > 100 µM | – | > 100 µM | – | > 100 µM | – | > 100 µM | – | > 100 µM | – | > 100 µM | – | > 100 µM | – | > 100 µM | – | > 100 µM
9 | CCC(C)CC(CC)NCCN1CCN(C(CC)CC(C)CC)C1=S (configuration not stated) | 2.39 µM | 8.68 µM | 2.39 µM | 4.52 µM | 1.79 | 3.25 µM | 1.89 µM | 3.41 µM | 1.77 µM | 3.39 µM | 1.86 µM | 3.68 µM | 1.65 µM | 3.1 µM | 1.66 µM | 3.39 µM | 1.72 µM | 3.57 µM | – | –
10 | COc1cc2c3c(n(CCCNCCN4CCOCC4)c(=O)c2cc1OC)-c1cc2c(cc1C3=O)OCO2 | 5.98 µM and 2.19 µM | 15.2 µM and > 100 µM | 7.64 µM and 7.01 µM | 16.6 µM and 29.5 µM | – | – | 7.78 µM and 3.92 µM | 14.7 µM and 19.7 µM | 1.93 µM and 4.36 µM | 10.3 µM and 19.2 µM | < 0.005 µM and 0.0343 µM | 2.13 µM and 1.55 µM | 6.99 µM and 19.2 µM | 14.2 µM and 46.2 µM | 0.11 µM | 0.69 µM | 2.56 µM and 23.5 µM | 50 µM and 70.2 µM | 7.72 µM | > 67.1 µM
11 | COc1cccc(C2C(C#N)=C(N)Oc3cc(OC)ccc32)c1 (configuration not stated) | 0.0572 µM | 31.1 µM | 0.106 µM | 17 µM | 0.0271 | > 100 µM | – | – | – | – | 0.0286 µM | 33.9 µM | 1.1 µM | > 83.9 µM | 0.0184 µM | – | 0.0437 µM | 63.3 µM | 0.0203 µM | > 100 µM
12 | CC(C)c1ccc(O)c(=O)cc1 | 6.31 µM | 35.7 µM and 71.7 µM | – | – | 16.3 | 40.6 µM | 34.5 µM | 39 µM | 19.6 µM | – | 7.57 µM | > 100 µM | 15.9 µM | 31 µM | 3.64 µM | 59.3 µM | 21 µM | – | 3.63 µM | > 53.1 µM and 14.6 µM
13 | CCCCC#Cc1cccc(=O)o1 | 20.8 µM | > 100 µM | > 100 µM | > 100 µM | 4.5 | > 100 µM | 20.8 µM | > 100 µM | 15 µM | > 100 µM | > 100 µM | > 100 µM | 30.9 µM | > 100 µM | 9.46 µM | > 100 µM | 29.2 µM | > 100 µM | – | –
14 | CCN1CCCCC(=N\O)/C(=N/O)CCCC1 | – | > 100 µM | – | > 100 µM | – | > 100 µM | – | > 100 µM | – | > 100 µM | – | > 100 µM | – | > 100 µM | – | > 100 µM | – | – | – | –
15 | C=C1C(=O)O[C@H]2[C@H]1CC/C(COC(=O)C(=O)c1cn(C)c3ccc(OC)cc13)=C\CC[C@@]1(C)O[C@@H]21 | 2.42 µM | 6.02 µM | 1.75 µM | 3.28 µM | 3.22 | 8.27 µM | – | – | 3.83 µM | 9.49 µM | 9.35 µM | 21.8 µM | 4.82 µM | 9.73 µM | 4.97 µM | 25.8 µM | 5.98 µM | 11.1 µM | 5.97 µM | > 61.3 µM
16 | COc1cccc2c1C(=O)c1c(O)c3c(c(O)c1C2=O)C[C@@](O)(/C(C)=N\O)C[C@@H]3OC1CC(N)C(O)C(C)O1 (some centres not stated) | – | 49.2 µM | – | 5.65 µM | – | 6.78 µM | – | 2.48 µM | – | – | – | 7.84 µM | – | 6.02 µM | – | – | – | 11 µM | – | 7.72 µM
17 | CC(C)(CCC(C)(C)c1ccccc1)c1ccccc1 | – | – | – | 37.2 µM | – | 52.7 µM | – | 31.5 µM | – | 49.9 µM | – | 31.6 µM | – | 29.2 µM | – | 36.9 µM | – | 36.6 µM | – | 61.2 µM
18 | Nc1nc(Nc2ccc3c(c2)CCC(N2CCCC2)CC3)nn1-c1cc2c(nn1)-c1ccccc1CCC2 (configuration not stated) | 0.668 µM | 2.13 µM | 1.52 µM | 3.01 µM | 0.957 | 2.27 µM | 1.04 µM | 2.53 µM | 1.32 µM | 2.74 µM | 1.85 µM | 3.54 µM | 1.7 µM | 3.36 µM | – | – | 1.75 µM | 3.95 µM | 0.701 µM | 2.48 µM
19 | COc1ccc(-c2c(C#N)c(N)nc3c2CCCc2ccc(F)cc2-3)cc1OC | 0.148 µM | > 100 µM | 0.556 µM | 26.2 µM | 0.0758 | 0.402 µM | < 0.01 µM | > 100 µM | – | – | < 0.01 µM | – | – | > 78.5 µM | 0.48 µM | > 100 µM | 22.3 µM | > 100 µM | < 0.01 µM | > 100 µM
20 | O=[N+]([O-])c1ccc(O)c2ncccc12 | 18.7 µM and 3.93 µM | > 100 µM and 20.8 µM | – | > 100 µM and 24 µM | – | > 100 µM and 10.5 µM | 4.06 µM | 19.3 µM | – | > 100 µM and 15.2 µM | 22 µM and 2.28 µM | 82.4 µM and 13.1 µM | – | – | – | – | 23 µM and 2.38 µM | – | – | > 100 µM and 15.5 µM
21 | O=C1c2ccccc2C2(O)Oc3cccc(O)c3C12O (configuration not stated) | – | > 100 µM | – | – | – | > 100 µM | – | > 100 µM | – | – | – | > 100 µM | – | > 100 µM | – | – | – | – | – | > 100 µM
22 | COc1ccc(/C=C/C(C(=O)O)C(=O)O)cc1 | – | > 100 µM | – | – | – | > 100 µM | – | > 100 µM | – | – | – | > 100 µM | – | > 100 µM | – | – | – | – | – | > 100 µM
23 | COc1ccc(Cn2cc(Cn3c(=O)c(-c4nc5ccccc5[nH]4)cc4ccccc43)nn2)c(OC)c1OC | 0.576 µM and 0.749 µM | 1.78 µM and 4.63 µM | 0.502 µM | 1.52 µM | – | – | 0.676 µM | 2.21 µM | 0.0821 µM and 0.0453 µM | 0.186 µM and 0.17 µM | 0.239 µM and 0.324 µM | 1.19 µM and 1.94 µM | 0.796 µM and 2.22 µM | – | 1.1 µM and 1.83 µM | 3.96 µM and 15.8 µM | 0.154 µM and 0.804 µM | – | 0.162 µM and 0.191 µM | 50 µM and > 100 µM
24 | CC1=N/C(=C\c2ccc([N+](=O)[O-])cc2)C(=O)O1 | – | > 100 µM | – | – | – | > 100 µM | – | > 100 µM | – | – | – | > 100 µM | – | > 100 µM | – | – | – | – | – | > 100 µM
